Experimental data as given in the PolyMetriX glass transition set.
± gives the standard deviation of the reports.

| glass transition temperature [°C] | SMILES |
| --- | --- |
| 122.00 | *OS(=O)(=O)c1cccc(C(=O)c2cccc(S(=O)(=O)Oc3ccc(C(C)(C)c4ccc(*)cc4)cc3)c2)c1 (repeat unit) |
| 116.00 | *c1cccc(OCCCCCCCCCCCCOc2cccc(N3C(=O)c4ccc(-c5ccc6c(c5)C(=O)N(*)C6=O)cc4C3=O)c2)c1 (repeat unit) |
| 44.00 | *Oc1cc(OC(=O)c2ccc(OCCCCC)cc2)c(OC(=O)CCCC(*)=O)cc1OC(=O)c1ccc(OCCCCC)cc1 (repeat unit) |
| 211.00 | *c1ccc(Oc2ccc(-c3ccc(Oc4ccc(N5C(=O)c6ccc(Oc7ccc(Oc8ccc(Oc9ccc%10c(c9)C(=O)N(*)C%10=O)cc8)cc7)cc6C5=O)cc4)cc3)cc2)cc1 (repeat unit) |
| 342.00 | *C(=O)c1ccc2c(c1)C(=O)N(c1ccc(-c3cc(-c4ccc(OCCCC#N)cc4)cc(-c4ccc(N5C(=O)c6ccc(*)cc6C5=O)cc4)n3)cc1)C2=O (repeat unit) |
| 85.00 | *CCCCCCCCCCOc1ccc(/C=C2\CCC/C(=C\c3ccc(O*)cc3)C2=O)cc1 (repeat unit) |
| 179.00 | *C(=O)Nc1ccc(Oc2cccc(Oc3ccc(NC(=O)c4ccc5c(c4)C(=O)N(c4ccc(Sc6ccc(Oc7ccc(Sc8ccc(N9C(=O)c%10ccc(*)cc%10C9=O)cc8)cc7)cc6)cc4)C5=O)cc3)c2)cc1 (repeat unit) |
| 198.00 | */C(=C/c1cc(OC)c(/C=C(\c2ccccc2)c2ccc3cc(*)ccc3c2)cc1OC)c1ccccc1 (repeat unit) |
| 30.00 | *O[Si](*)(C)CCCOCCOCCOc1ccc(COc2ccc3cc(C#N)ccc3c2)cc1 (repeat unit) |
| 253.00 | *c1cccc(C(=O)Nc2ccc(Oc3cccc(Oc4ccc(NC(=O)c5cccc(N6C(=O)c7ccc(-c8cccc9c8C(=O)N(*)C9=O)cc7C6=O)c5)cc4)c3)cc2)c1 (repeat unit) |
| 236.00 | *c1ccc(Oc2ccc(Oc3ccc(N4C(=O)c5ccc(Oc6ccc(C7(c8ccc(Oc9ccc%10c(c9)C(=O)N(*)C%10=O)cc8)CCC(c8ccccc8)CC7)cc6)cc5C4=O)cc3)c(C(C)(C)C)c2)cc1 (repeat unit) |
| 39.00 | *CCOCCOc1ccc(/C=C(\C)c2ccc(O*)cc2)cc1 (repeat unit) |
| 196.00 | *c1cccc(Oc2ccc(C#N)c(Oc3cccc(N4C(=O)c5ccc(Oc6ccc7c(c6)C(=O)N(*)C7=O)cc5C4=O)c3)c2)c1 (repeat unit) |
| 76.00 | *CC(O)CN(C)S(=O)(=O)c1cccc(S(=O)(=O)N(C)CC(O)COc2ccc(C(C)(C)c3ccc(O*)cc3)cc2)c1 (repeat unit) |
| 59.60 | *CCN(CCCCCOc1ccc(/N=N/c2ccccc2)cc1)CCOC(=O)Nc1ccc(Cc2ccc(NC(=O)O*)cc2)cc1 (repeat unit) |
| 252.00 | *C(=O)Nc1ccc(S(=O)(=O)c2ccc(NC(=O)c3ccc(N4C(=O)c5ccc(*)cc5C4=O)cc3)cc2)cc1 (repeat unit) |
| 90.00 | *CC(O)CN(C)S(=O)(=O)c1cccc(S(=O)(=O)N(C)CC(O)COc2ccc(Sc3ccc(O*)cc3)cc2)c1 (repeat unit) |
| 103.50 | *C(=O)c1ccc2c(c1)C(=O)N(c1ccc(-c3c(-c4ccc(-c5ccccc5)cc4)cc(-c4ccc(OCCCCCCCCCCOc5ccc(-c6cc(-c7ccc(-c8ccccc8)cc7)c(-c7ccc(N8C(=O)c9ccc(*)cc9C8=O)cc7)c(-c7ccc(-c8ccccc8)cc7)c6)cc5)cc4)cc3-c3ccc(-c4ccccc4)cc3)cc1)C2=O (repeat unit) |
| 213.00 | *c1ccc(Oc2ccc(Oc3ccc(NC(=O)c4cccc(Oc5ccc6c(c5)C(=O)N(*)C6=O)c4)cc3)cc2)cc1 (repeat unit) |
| 274.00 | *C(=O)Nc1ccc(Oc2ccc(S(=O)(=O)c3ccc(Oc4ccc(NC(=O)c5ccc6c(c5)C(=O)N(c5ccc(Oc7ccc8ccc(Oc9ccc(N%10C(=O)c%11ccc(*)cc%11C%10=O)cc9)cc8c7)cc5)C6=O)cc4)cc3)cc2)cc1 (repeat unit) |
| 223.00 | *C(=O)Nc1ccc(Oc2ccc(N3C(=O)CC(N4C(=O)c5ccc(*)cc5C4=O)C3=O)cc2)cc1 (repeat unit) |
| 184.40 | *Oc1ccc(NC(=O)c2cc(-c3ccc(C(=O)O)c(C(=O)Nc4ccc(*)cc4)c3)ccc2C(=O)O)cc1 (repeat unit) |

Further lines, the compound ahead of its results:

| SMILES | glass transition temperature [°C] |
| --- | --- |
| *CCCCCOC(=O)c1ccccc1C(=O)[O][Cd][O]C(=O)c1ccccc1C(=O)OCCCCCOC(=O)NCCCCCCNC(=O)O* (repeat unit) | -6.80 |
| *OCC(F)(F)C(F)(F)C(F)(F)COc1nc(F)c(F)c(OCC(F)(F)C(F)(F)C(F)(F)COc2c(F)c(*)nc(F)c2F)c1F (repeat unit) | -10.00 |
| *c1cccc(P(=O)(c2ccccc2)c2cccc(N3C(=O)c4ccc(Oc5ccc6c(c5)C(=O)N(*)C6=O)cc4C3=O)c2)c1 (repeat unit) | 251.00 |
| *CC[Si](C)(C)O[Si]1(*)O[Si](C)(C)O[Si](C)(C)O1 (repeat unit) | -64.00 |
| *CC(*)C(=O)OCC (repeat unit) [Poly(ethyl acrylate) ] | -22 ± 2.1 |
| *Oc1ccc(CC(NC(=O)Cc2ccc(OC(=O)CC(C)CCC(*)=O)cc2)C(=O)OCCCCCC)cc1 (repeat unit) | 38.00 |
| *Oc1ccc(CC(NC(=O)CCc2ccc(OC(=O)CCCCCCCCC(*)=O)cc2)C(=O)OCC)cc1 (repeat unit) | 44.00 |
| *CCCCCCCCCC[N+](*)(C)C (repeat unit) | 65.90 |
| *CCCCCCCCNC(=O)c1ccc(C(=O)N*)c(Oc2ccccc2)c1 (repeat unit) | 96.00 |
| *CC(*)c1ccc(C(C)(O)CCCC)cc1 (repeat unit) | 90.00 |
| *C(F)(F)C1(*)OC(F)(F)C(F)(F)O1 (repeat unit) | 108.00 |
| *OC(F)(C(=O)[N]([Li])S(=O)(=O)C(F)(F)C(*)(F)F)C(F)(F)F (repeat unit) | 67.00 |
| *CC(*)c1ccc(Cl)cc1 (repeat unit) [Poly(4-chlorostyrene)] | 119.92 ± 5.3 |
| *Oc1ccc(C(CC)(CC)c2ccc(OC(*)=S)cc2)cc1 (repeat unit) | 121.00 |
| */C(CCCCCC)=C(/*)c1ccccc1 (repeat unit) | 200.00 |
| *CCCCCC(=O)N* (repeat unit) [Poly(6-aminohexanoic acid)] | 55.73 ± 5.6 |
| *CC(*)C(=O)OCCCOc1ccc(/N=N/c2ccc([N+](=O)[O-])cc2)cc1 (repeat unit) | 45.60 |
| *CC(*)(C)c1ccccc1 (repeat unit) [poly(alpha-methylstyrene)] | 168.00 ± 140 |
| *CCc1cc(C)c(*)cc1C (repeat unit) | 100.00 |
| *CC(*)(C)C(=O)OCc1ccc2c(c1)c1ccccc1n2CCCC (repeat unit) | 87.00 |
| *CCCCCCN(C)c1ccc(C(=O)c2ccc(N(*)C)cc2)cc1 (repeat unit) | 75.50 |
| *Oc1c(C)cc(*)cc1C(C)CCCCCCCC (repeat unit) | 20.00 |
